# Assay results taken from US9169241B2, “Quinolinyloxyphenylsulfonamides” (Max-Planck-Gesellschaft Zur Forderung der Wissenschaften …, priority 2009, dated 2015).
# Where two headings read alike, the source gives them in different places.
# Legend:
# [1] = tested on: Hs578T; test: Matrigel outgrowth assay/branching assay; format: cell-based; details: Homo sapiens, Hs-578T; HS578T cell line; Table Ib; read-out: Total branching inhibition in Matrigel HS578T
# Outline: (§1)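 Matrigel 3 mg/ml, polymerized 1 h 37° C; 5000 cells/well + cmpd 3.125/1.56/0.78 μM or DMSO. Imaged 48/72/96 h, 5× objective. Positive = total branching block.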
# [2] = tested on: U118; test: Matrigel outgrowth assay/branching assay; format: cell-based; details: Table Vb, read-out: Total branching inhibition in Matrigel U118
# Outline: as §1
# [3] = tested on: SF126; test: Matrigel outgrowth assay/branching assay; format: cell-based; details: Homo sapiens, SF-126, Table Vb, read-out: Total branching inhibition in Matrigel SF126
# Outline: as §1
# [4] = tested on: A172; test: Matrigel outgrowth assay/branching assay; format: cell-based; details: Homo sapiens, A 172, Table Vb, read-out: Total branching inhibition in Matrigel A172
# Outline: as §1
# [5] = tested on: Hs578T; test: Cell vitality assay (ATP assay, CellTiter-Glo); format: cell-based; details: Homo sapiens, Hs-578T; HS578T cell line, 72 h; Table Ib; read-out: IC50 ATP-Assay HS578T after 72 h
# Outline: (§2)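 IC50s reflect 50% loss of ATP-dependent luminescence versus DMSO control after a 72 h treatment of 1000 cells per well across 0.195–12.5 μM compound.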
# [6] = tested on: U118; test: Cell vitality assay (ATP assay, CellTiter-Glo); format: cell-based; details: U118, 72 h; Table IIa; read-out: IC50 ATP-Assay after 72 h U118
# Outline: as §2
# [7] = tested on: SF126; test: Cell vitality assay (ATP assay, CellTiter-Glo); format: cell-based; details: Homo sapiens, SF-126; SF126, 72 h; Table IIa; read-out: IC50 ATP-Assay after 72 h SF126
# Outline: as §2
# [8] = tested on: A172; test: Cell vitality assay (ATP assay, CellTiter-Glo); format: cell-based; details: Homo sapiens, A 172; A172, 72 h; Table IIa; read-out: IC50 ATP-Assay after 72 h A172
# Outline: as §2
# [9] = tested on: Hs578T; test: Wound healing migration assay; format: cell-based; details: Homo sapiens, Hs-578T; HS578T cell line; Table Ib
# Outline: (§3)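 Compound exposure at 12.5, 6.25 and 3.125 μM, with DMSO control, on scratch-wounded monolayers (150000 cells/24 well, overnight). Wound closure imaged by microscopy, fixed with crystal violet after 48 h or 72 h depending on cell line; IC50 is the concentration giving 50% wound size between t0 and t48/t72.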
# [10] = tested on: indicated cell line; test: Wound healing migration assay (Table IV); format: cell-based; details: compounds at 12.5, 6.25, 3.125 μM, 48 h-72 h
# Outline: as §3
# [11] = tested on: cells; test: Boyden chamber migration assay (Table VI); format: cell-based; details: Homo sapiens, Hs-578T, 16 h, Hs578T cells; 16 h migration
# Outline: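 Migration read-out is a count of fixed cells on the underside of an […] insert membrane after 16 h. Chemoattractant was medium with 10% FCS in the lower chamber; 20000 cells started in serum-free medium with 0.1% BSA above, and those left on top were removed by swab.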
# [12] = tested on: Hs578T; test: Apoptosis assay (Cellomics, nucleus condensation); format: cell-based; details: Homo sapiens, Hs-578T, Table III, read-out: Apoptosis induction in Hs578T
# Outline: (§4)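 Cells seeded at 5000 per well were stained live with Hoechst 33342, and nuclear condensation was quantified per nucleus by automated fluorescence imaging alongside cell counts. Compound was tested at 12.5, 6.25, 3.125, 1.56, 0.78 and 0.39 μM against a DMSO control, with reads at 24 h and 48 h.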
# [13] = tested on: C8161; test: Apoptosis assay (Cellomics, nucleus condensation); format: cell-based; details: Homo sapiens, Table III, read-out: Apoptosis induction in C8161
# Outline: as §4
# [14] = tested on: U118; test: Apoptosis assay (Cellomics, nucleus condensation); format: cell-based; details: Table III, read-out: Apoptosis induction in U118
# Outline: as §4
# [15] = tested on: SF126; test: Apoptosis assay (Cellomics, nucleus condensation); format: cell-based; details: Homo sapiens, SF-126, Table III, read-out: Apoptosis induction in SF126
# Outline: as §4
# [16] = tested on: SF763; test: Apoptosis assay (Cellomics, nucleus condensation); format: cell-based; details: Table III, read-out: Apoptosis induction in SF763
# Outline: as §4
# [17] = tested on: U138; test: Apoptosis assay (Cellomics, nucleus condensation); format: cell-based; details: Table III, read-out: Apoptosis induction in U138
# Outline: as §4
# [18] = tested on: tumor cell; test: Matrigel outgrowth assay/branching assay (Table Va); format: cell-based
# Outline: as §1
# [19] = tested on: viable cells in culture; test: Cell viability assay at 10 μM (CellTiter-Glo, Table VII); format: cell-based; details: compound 10 μM, 72 h;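 also: graded A 0-20%; B 21-40%; C 41-60%; D over 60% viable cells relative to DMSO control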
# Outline: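 Cells were seeded at 1000 cells/well in 96-well plates in 100 μl culture medium and incubated for 72 h with 10 μM compound or a DMSO control. ATP content, which reflects metabolically active and therefore viable cells, was then determined by CellTiter-Glo luminescence (Promega) per the manufacturer's instructions and expressed relative to the DMSO control.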
# [20] = Homo sapiens, A 172, A172 cells, read-out: IC50 Wound healing Assay A172
# [21] = Homo sapiens, SF-126, SF126 cells, read-out: IC50 Wound healing Assay SF126
# [22] = U118 cells, read-out: IC50 Wound healing Assay U118
smiles,measurement,setting,value
"COc1cc2c(Oc3ccc(NS(=O)(=O)c4ccccc4C(F)(F)F)cc3F)ccnc2cc1OCCCN1CCCCC1 [Example 4, N-{3-Fluoro-4-[6-methoxy-7-(3-piperidin-1-yl-propoxy)-quinolin-4-yloxy]-phenyl}-2-trifluoromethyl-benzenesulfonamide]",IC50,[1],≤ 10 µM
same,IC100,[2],≤ 12.5 µM
same,IC100,[3],≤ 12.5 µM
same,IC100,[4],> 12.5 µM
same,IC50,[5],≤ 12.5 µM
same,IC50,[6],≤ 12.5 µM
same,IC50,[7],≤ 12.5 µM
same,IC50,[8],≤ 12.5 µM
same,IC50,[9],≤ 12.5 µM
same,IC50,[10]; [20],≤ 12.5 µM
same,IC50,[10]; [21],≤ 12.5 µM
same,IC50,[10]; [22],≤ 12.5 µM
same,melting point,,173 to 175 °C
"COc1cc2c(Oc3ccc(NS(=O)(=O)c4cc(F)ccc4F)cc3F)ccnc2cc1OCCCN1CCCCC1C (stereo not drawn) [Example 151, 2,5-Difluoro-N-(3-fluoro-4-{6-methoxy-7-[3-(2-methyl-piperidin-1-yl)-propoxy]-quinolin-4-yloxy}-phenyl)-benzenesulfonamide]",IC50,[1],≤ 10 µM
same,IC100,[2],≤ 12.5 µM
same,IC100,[3],≤ 12.5 µM
same,IC100,[4],≤ 12.5 µM
same,IC50,[5],≤ 12.5 µM
same,IC50,[6],≤ 12.5 µM
same,IC50,[7],≤ 12.5 µM
same,IC50,[8],≤ 12.5 µM
same,IC50,[9],≤ 12.5 µM
same,IC50,[10]; [20],≤ 12.5 µM
same,IC50,[10]; [21],≤ 12.5 µM
same,IC50,[10]; [22],≤ 12.5 µM
same,melting point,,120 to 122 °C
"COc1cc2c(Oc3ccc(NS(=O)(=O)c4cc(F)ccc4F)cc3F)ccnc2cc1OCCCN(C)C [Example 177, N-{4-[7-(3-Dimethylamino-propoxy)-6-methoxy-quinolin-4-yloxy]-3-fluoro-phenyl}-2,5-difluoro-benzenesulfonamide]",IC50,[1],≤ 10 µM
same,IC100,[2],≤ 12.5 µM
same,IC100,[3],≤ 12.5 µM
same,IC100,[4],≤ 12.5 µM
same,IC50,[5],≤ 12.5 µM
same,IC50,[6],≤ 12.5 µM
same,IC50,[7],≤ 12.5 µM
same,IC50,[8],≤ 12.5 µM
same,IC50,[9],≤ 12.5 µM
same,IC50,[10]; [20],≤ 12.5 µM
same,IC50,[10]; [21],≤ 12.5 µM
same,IC50,[10]; [22],≤ 12.5 µM
same,melting point,,108 to 110 °C
"COc1cc2c(Oc3ccc(NS(=O)(=O)c4ccccc4C)cc3F)ccnc2cc1OCCCN1CCN(C)CC1 [Example 28, N-(3-Fluoro-4-{6-methoxy-7-[3-(4-methyl-piperazin-1-yl)-propoxy]-quinolin-4-yloxy}-phenyl)-2-methyl-benzenesulfonamide]",IC50,[1],10 to 25 µM
same,IC50,[11],≤ 5 µM
same,IC50,[12],≤ 12.5 µM
same,IC50,[13],≤ 12.5 µM
same,IC50,[14],≤ 12.5 µM
same,IC50,[15],≤ 12.5 µM
same,IC50,[16],≤ 12.5 µM
same,IC50,[17],≤ 12.5 µM
same,IC50,"[10]; Homo sapiens, C8161 cells, read-out: IC50 Wound healing Assay C8161",≤ 12.5 µM
same,IC50,"[10]; SF763 cells, read-out: IC50 Wound healing Assay SF763",≤ 12.5 µM
same,IC50,"[18]; Homo sapiens, C8161 cells, read-out: Total branching inhibition in Matrigel C8161",≤ 5 µM
same,IC50,"[18]; Homo sapiens, Hs-578T, Hs578T cells, read-out: Total branching inhibition in Matrigel Hs578T",5 to 50 µM
same,IC50,"[18]; U118 cells, read-out: Total branching inhibition in Matrigel U118",≤ 5 µM
same,IC50,"[18]; U138 cells, read-out: Total branching inhibition in Matrigel U138",≤ 5 µM
same,melting point,,73 to 75 °C
same,viability at 10 µM,"[19]; Homo sapiens, HCT-116, HCT116 def, read-out: percentage (%) of viable cells HCT 116def",21 to 40%
same,viability at 10 µM,"[19]; Homo sapiens, HCT-116, HCT116 wt, read-out: percentage (%) of viable cells HCT 116wt",21 to 40%
same,viability at 10 µM,"[19]; Homo sapiens, HT-29, HT29, read-out: percentage (%) of viable cells HT29",21 to 40%
same,viability at 10 µM,"[19]; Homo sapiens, NCI-H358, H358, read-out: percentage (%) of viable cells H358",0 to 20%
same,viability at 10 µM,"[19]; Homo sapiens, NCI-H1650, H1650, read-out: percentage (%) of viable cells H1650",21 to 40%
same,viability at 10 µM,"[19]; Homo sapiens, NCI-H1666, H1666, read-out: percentage (%) of viable cells H1666",41 to 60%
same,viability at 10 µM,"[19]; Homo sapiens, NCI-H1975, H1975, read-out: percentage (%) of viable cells H1975",21 to 40%
same,viability at 10 µM,"[19]; Homo sapiens, NCI-H1993, H1993, read-out: percentage (%) of viable cells H1993",21 to 40%
same,viability at 10 µM,"[19]; Homo sapiens, A549, read-out: percentage (%) of viable cells A549",21 to 40%
same,viability at 10 µM,"[19]; Homo sapiens, HCC827, read-out: percentage (%) of viable cells HCC827",21 to 40%
same,viability at 10 µM,"[19]; Homo sapiens, SW480, read-out: percentage (%) of viable cells SW480",0 to 20%
same,viability at 10 µM,"[19]; RKO, read-out: percentage (%) of viable cells RKO",0 to 20%
